Source: patent US20040033901A1, “Uses for cellulose-containing aggregates” (priority 1994, published 2004)

Tested on: termites
Experiment: field test of termite attack on a weighted board on a one inch bed of aggregates
Type: in vivo
Details: one inch thick bed on ground surface in termite-infested area, after one year
Source text: In a field test, a one inch thick bed of aggregates containing either 0.1% Deltamethrin, 0.001% Deltamethrin, or no Deltamethrin were positioned on ground surface in an area known to be infested with termites and a weighted board was positioned on the top of the bed. […] Thus, at least for Deltamethrin, a toxin level of 0.001 wt % appears both effective and long lived.

CC1(C)[C@H](C(=O)O[C@H](C#N)c2cccc(Oc3ccccc3)c2)[C@@H]1C=C(Br)Br [Deltamethrin]
protection of board from termite attack (aggregates containing 0.001% Deltamethrin): totally protected | protection of board from termite attack (aggregates containing 0.1% Deltamethrin): totally protected
